Test results from patent publication US9890147B2 (BAYER PHARMA AKTIENGESELLSCHAFT, priority 2012, dated 2018).

Legend:
[1] = biological target: T1, BRD4 (BD1) (Homo sapiens, UniProt O60885); assay: Binding assay BRD4/acetylated peptide H4 (TR-FRET protein-protein interaction assay)
T1 construct: with relatively long constructs also being possible, preferably amino acids 44-168; made in house; host or cells: E. coli
Summary of the method: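 His6-BRD4 BD1 (aa 67-152, E. coli), usually 10 nM, with biotinylated tetra-acetylated H4 peptide in HEPES pH 7.5 buffer; 11 compound concentrations 0.1 nM–20 μM in duplicate, 10 min preincubation, 1 h at 22 °C then ≥3 h at 4 °C. TR-FRET 665/620 ratio; IC50 by 4-parameter fit.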

[2] = system: MOLM-13 cells; assay: Cell proliferation assay (alamarBlue), MOLM-13; type: cell-based; conditions: Homo sapiens, 96 hours incubation, inhibition of cell proliferation
Method: In accordance with the invention, the capability of the substances to inhibit cell proliferation was determined Cell viability was determined using the alamarBlue® reagent (Invitrogen) in a Victor X3 Multilabel Reader (Perkin Elmer). The excitation wavelength was 530 nm and the emission wavelenth […].
The MOLM-13 cells (DSMZ, ACC 554) were sown at a concentration of 4000 cells/well in 100 μl growth medium (RPMI1640, 10% FCS) on 96-well microtitre plates.
After an overnight incubation at 37° C., the fluorescence values (CI values) were determined. The plates were then treated with various substance dilutions (1E-5 M, 3E-6 M, 1E-6M, 3E-7 M, 1E-7 M, 3E-8 M, 1E-8 M) and incubated at 37° C. for 72 (MV4-11-, LOX-IMVI cells), 96 (MOLM-13-, B16F10-, MDA-MB-431-, Caov-3 cells), 120 (MOLP-8-, KMS-12-PE cells) or 168 (LAPC-4 cells) hours. The fluorescence values (CO values) were then determined. For the data analysis, the CI values were subtracted from the CO values and the results were compared between cells treated with different dilutions of the substance or with buffer solution only. These were used to calculate the IC 50 values (substance concentration required for 50% inhibition of cell proliferation).

Row | Compound | IC50 [1] | IC50 [2]
1 | CNC(=O)N1N=C(c2ccc(-c3ccccc3NS(C)(=O)=O)cc2)c2cc(OC)c(OC)cc2CC1C (racemic) [Example 68, (±)-7,8-dimethoxy-N,4-dimethyl-1-{2′-[(methylsulphonyl)amino]-biphenyl-4-yl}-4,5-dihydro-3H-2,3-benzodiazepine-3-carboxamide] | 70 nM | 1170 nM
2 | CNC(=O)N1N=C(c2ccc(-c3ccccc3S(C)(=O)=O)cc2)c2cc(OC)c(OC)cc2CC1C (racemic) [Example 69, (±)-7,8-dimethoxy-N,4-dimethyl-1-[2′-(methylsulphonyl)biphenyl-4-yl]-4,5-dihydro-3H-2,3-benzodiazepine-3-carboxamide] | 130 nM | 1210 nM
3 | CNC(=O)N1N=C(c2ccc(-c3ccc(NS(C)(=O)=O)cc3)cc2)c2cc(OC)c(OC)cc2CC1C (racemic) [Example 70, (±)-7,8-dimethoxy-N,4-dimethyl-1-{4′-[(methylsulphonyl)amino]biphenyl-4-yl}-4,5-dihydro-3H-2,3-benzodiazepine-3-carboxamide] | 40 nM | 300 nM
4 | CNC(=O)N1N=C(c2ccc(-c3ccccc3C)cc2)c2cc(OC)c(OC)cc2CC1C (racemic) [Example 72, (±)-7,8-dimethoxy-N,4-dimethyl-1-(2′-methylbiphenyl-4-yl)-4,5-dihydro-3H-2,3-benzodiazepine-3-carboxamide] | 210 nM | 660 nM
5 | CNC(=O)N1N=C(c2ccc(-c3cccc(S(C)(=O)=O)c3)cc2)c2cc(OC)c(OC)cc2CC1C (racemic) [Example 73, (±)-7,8-dimcthoxy-N,4-dimethyl-1-[3′-(methylsulphonyl)biphenyl-4-yl]-4,5-dihydro-3H-2,3-benzodiazepine-3-carboxamide] | 30 nM | 300 nM
6 | CNC(=O)N1N=C(c2ccc(-c3cnc(OC)nc3)cc2)c2cc(OC)c(OC)cc2CC1C (racemic) [Example 74, (±)-7,8-dimethoxy-1-[4-(2-methoxypyrimidin-5-yl)phenyl]-N,4-dimethyl-4,5-dihydro-3H-2,3-benzodiazepine-3-carboxamide] | 80 nM | 550 nM
7 | CNC(=O)N1N=C(c2ccc(-c3ccc(F)c(C#N)c3)cc2)c2cc(OC)c(OC)cc2CC1C (racemic) [Example 75, (±)-1-(3′-cyano-4′-fluorobiphenyl-4-yl)-7,8-dimethoxy-N,4-dimethyl-4,5-dihydro-3H-2,3-benzodiazepine-3-carboxamide] | 130 nM | 660 nM
8 | CNC(=O)N1N=C(c2ccc(-c3cccnc3OC)cc2)c2cc(OC)c(OC)cc2CC1C (racemic) [Example 76, (±)-7,8-dimethoxy-1-[4-(2-methoxypyridin-3-yl)phenyl]-N,4-dimethyl-4,5-dihydro-3H-2,3-benzodiazepine-3-carboxamide] | 50 nM | 750 nM
9 | CNC(=O)N1N=C(c2ccc(-c3cccc(C(N)=O)c3)cc2)c2cc(OC)c(OC)cc2CC1C (racemic) [Example 77, (±)-1-(3′-carbamoylbiphenyl-4-yl)-7,8-dimethoxy-N,4-dimethyl-4,5-dihydro-3H-2,3-benzodiazepine-3-carboxamide] | 40 nM | 490 nM
10 | CNC(=O)N1N=C(c2ccc(-c3ccc(C(=O)N4CCCC4)cc3)cc2)c2cc(OC)c(OC)cc2CC1C (racemic) [Example 78, (±)-7,8-dimethoxy-N,4-dimethyl-1-[4′-(pyrrolidin-1-ylcarbonyl)biphenyl-4-yl]-4,5-dihydro-3H-2,3-benzodiazepine-3-carboxamide] | 40 nM | 370 nM
11 | CNC(=O)N1N=C(c2ccc(-c3ccc(C(=O)N4CCOCC4)cc3)cc2)c2cc(OC)c(OC)cc2CC1C (racemic) [Example 79, (±)-7,8-dimethoxy-N,4-dimethyl-1-[4′-(morpholin-4-ylcarbonyl)biphenyl-4-yl]-4,5-dihydro-3H-2,3-benzodiazepine-3-carboxamide] | 50 nM | 460 nM
12 | CNC(=O)N1N=C(c2ccc(-c3cncc(OC)c3)cc2)c2cc(OC)c(OC)cc2CC1C (racemic) [Example 80, (±)-7,8-dimethoxy-1-[4-(5-methoxypyridin-3-yl)phenyl]-N,4-dimethyl-4,5-dihydro-3H-2,3-benzodiazepine-3-carboxamide] | 50 nM | 560 nM
13 | CNC(=O)N1N=C(c2ccc(-c3cncc(C)c3)cc2)c2cc(OC)c(OC)cc2CC1C (racemic) [Example 81, (±)-7,8-dimethoxy-N,4-dimethyl-1-[4-(5-methylpyridin-3-yl)phenyl]-4,5-dihydro-3H-2,3-benzodiazepine-3-carboxamide] | 50 nM | 300 nM
14 | CNC(=O)N1N=C(c2ccc(-c3cnccc3C)cc2)c2cc(OC)c(OC)cc2CC1C (racemic) [Example 82, (±)-7,8-dimethoxy-N,4-dimethyl-1-[4-(4-methylpyridin-3-yl)phenyl]-4,5-dihydro-3H-2,3-benzodiazepine-3-carboxamide] | 80 nM | 550 nM
15 | CNC(=O)N1N=C(c2ccc(-c3ccc(C(=O)NC4CC4)cc3)cc2)c2cc(OC)c(OC)cc2CC1C (racemic) [Example 83, (±)-1-[4′-(cyclopropylcarbamoyl)biphenyl-4-yl]-7,8-dimethoxy-N,4-dimethyl-4,5-dihydro-3H-2,3-benzodiazepine-3-carboxamide] | 30 nM | 450 nM
16 | CNC(=O)N1N=C(c2ccc(-c3ccncc3F)cc2)c2cc(OC)c(OC)cc2CC1C (racemic) [Example 84, (±)-1-[4-(3-fluoropyridin-4-yl)phenyl]-7,8-dimethoxy-N,4-dimethyl-4,5-dihydro-3H-2,3-benzodiazepine-3-carboxamide] | 60 nM | 340 nM
17 | CNC(=O)N1N=C(c2ccc(-c3cccc(C(F)(F)F)c3)cc2)c2cc(OC)c(OC)cc2CC1C (racemic) [Example 85, (±)-7,8-dimethoxy-N,4-dimethyl-1-[3′-(trifluoromethyl)biphenyl-4-yl]-4,5-dihydro-3H-2,3-benzodiazepine-3-carboxamide] | 290 nM | 1080 nM
18 | CNC(=O)N1N=C(c2ccc(-c3ccc(C(F)(F)F)cc3)cc2)c2cc(OC)c(OC)cc2CC1C (racemic) [Example 86, (±)-7,8-dimethoxy-N,4-dimethyl-1-[4′-(trifluoromethyl)biphenyl-4-yl]-4,5-dihydro-3H-2,3-benzodiazepine-3-carboxamide] | 390 nM | 1430 nM
19 | CNC(=O)N1N=C(c2ccc(-c3cccc(OC)c3)cc2)c2cc(OC)c(OC)cc2CC1C (racemic) [Example 87, (±)-7,8-dimethoxy-1-(3′-methoxybiphenyl-4-yl)-N,4-dimethyl-4,5-dihydro-3H-2,3-benzodiazepine-3-carboxamide] | 110 nM | 560 nM
20 | CNC(=O)N1N=C(c2ccc(-c3ccc(-c4ccc(Cl)s4)cc3)cc2)c2cc(OC)c(OC)cc2CC1C (racemic) [Example 88, (±)-1-[4′-(5-chlorothien-2-yl)biphenyl-4-yl]-7,8-dimethoxy-N,4-dimethyl-4,5-dihydro-3H-2,3-benzodiazepine-3-carboxamide] | 290 nM | 670 nM
21 | CNC(=O)N1N=C(c2ccc(-c3cccc(F)c3)cc2)c2cc(OC)c(OC)cc2CC1C (racemic) [Example 89, (±)-1-(3′-fluorobiphenyl-4-yl)-7,8-dimethoxy-N,4-dimethyl-4,5-dihydro-3H-2,3-benzodiazepine-3-carboxamide] | 140 nM | 380 nM
